Results taken from US7645881B2, “Methods for treating hepatitis C” (PTC Therapeutics, Inc., priority 2004, dated 2010).

Experiments:
HCV replicon = test: microbe, parasite or virus in culture; format: cell-based; conditions: Hepatitis C virus, 48 h, read-out: Replicon IC50s μM
[1] = test system: wild-type poliovirus (WT-PV); format: cell-based; conditions: HeLa cells, MOI 0.1, compound for one day, decrease of cytopathic effect
[2] = test system: cap-dependent translation; test: Western blot of Fluc protein in pLuc cells (cap-dependent translation); format: cell-based, human; conditions: 20 hours, data not shown

SMILES | IC50 (HCV replicon) | WTPV CPE (1.2 μM) [1] | WTPV CPE (11.1 μM) [1] | WTPV CPE (100 μM) [1] | melting point | cap-dependent protein production (luciferase reporter protein level, Western blot) [2]
Nc1c(C(=O)Nc2ccc(C(F)(F)F)cc2)sc2nc3c(cc12)CCCCC3 [Compound 29] | > 2 µM | 0 | 1 (A “1” in the WT-PV CPE columns indicates that the CPE (cytopathic effect) is decreased by 20-50%.) | 2 (A “2” in the WT-PV CPE columns indicates that the CPE is decreased by 50-75%.) |  | 
CCc1c(C)nc2sc(N)c(C#N)c2c1C [Compound 35, 2-amino-5-ethyl-4,6-dimethylthieno[2,3-b]pyridine-3-carbonitrile] | > 2 µM | 0 | 1 (A “1” in the WT-PV CPE columns indicates that the CPE (cytopathic effect) is decreased by 20-50%.) | 2 (A “2” in the WT-PV CPE columns indicates that the CPE is decreased by 50-75%.) | 223 to 225 °C | 
CN1CCN(C(=O)c2sc3nc4c(c(C(F)(F)F)c3c2N)CCCCC4)CC1 [Compound 5] | > 2 µM | 0 | 1 (A “1” in the WT-PV CPE columns indicates that the CPE (cytopathic effect) is decreased by 20-50%.) | 2 (A “2” in the WT-PV CPE columns indicates that the CPE is decreased by 50-75%.) |  | 
COc1ccc(C[C@H](N)C(=O)N[C@H]2[C@@H](O)[C@H](n3cnc4c(N(C)C)ncnc43)O[C@@H]2CO)cc1 [puromycin] |  |  |  |  |  | inhibited
CCc1c(C)nc2sc(C(=O)OC(C)(C)C)c(N)c2c1C [Compound 3, tert-Butyl 3-amino-5-ethyl-4,6-dimethylthieno[2,3-B]pyridine-2-carboxylate] | 0.5 to 2 µM |  |  |  | 135 to 136 °C | 
CN1CCN(C(=O)c2sc3nc4c(c(-c5cccs5)c3c2N)CCCCC4)CC1 [Compound 47] | > 2 µM |  |  |  | 115 to 118 °C | 
Cc1nc2sc(-c3nnc(-c4ccc(Cl)cc4)o3)c(N)c2c(C)c1C [Compound 12] | > 2 µM |  |  |  | 331 to 332 °C | 
CCc1c(C)nc2sc(NC(=O)C(C)(C)C)c(C#N)c2c1C [Compound 50] | > 2 µM | 0 | 1 (A “1” in the WT-PV CPE columns indicates that the CPE (cytopathic effect) is decreased by 20-50%.) | 3 (A “3” in the WT-PV CPE columns indicates that the CPE is decreased by 75-100%.) | 164 to 166 °C | 
Cc1nc2sc(-c3nnc(-c4ccccc4Cl)o3)c(N)c2c(C)c1C [Compound 15] | 0.5 to 2 µM |  |  |  | 284 to 286 °C | 
Cc1nc2sc(-c3noc(-c4ccccc4)n3)c(N)c2c(C)c1C [Compound 21] | < 0.5 µM |  |  |  | 248 to 250 °C | 
